pIC50: −log10 of the molar value.
Tested on: KRAS PDC multicell spheroid viability
Assay: Anticancer human tumor 825966-067-R-J1-PDC patient-derived colon carcinoma cell line growth inhibition [KRAS2]
Conditions: for pIC50: curve of first compound; for viability, T/C: stronger effect = lower value
Summary of the method: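 Combination screen of spheroid viability in tumor-cell co-cultures with endothelial (HUVEC) and mesenchymal stem cell stroma. Each agent was tested in half-log dilutions, topping at clinical Cmax or at 10 microM without a known Cmax.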

[1] = second compound 0.1 µM, first compound 0.000316 µM
[2] = second compound 0.1 µM, first compound 0.001 µM
[3] = second compound 0.1 µM, first compound 0.00316 µM
[4] = second compound 0.1 µM, first compound 0.01 µM
[5] = second compound 0.1 µM, first compound 0.0316 µM
[6] = second compound 0.316 µM, first compound 0.000316 µM
[7] = second compound 0.316 µM, first compound 0.001 µM
[8] = second compound 0.316 µM, first compound 0.00316 µM
[9] = second compound 0.316 µM, first compound 0.01 µM
[10] = second compound 0.316 µM, first compound 0.0316 µM
[11] = second compound 1 µM, first compound 0.000316 µM
[12] = second compound 1 µM, first compound 0.001 µM
[13] = second compound 1 µM, first compound 0.00316 µM
[14] = second compound 1 µM, first compound 0.01 µM
[15] = second compound 1 µM, first compound 0.0316 µM
[16] = second compound 3.16 µM, first compound 0.000316 µM
[17] = second compound 3.16 µM, first compound 0.001 µM
[18] = second compound 3.16 µM, first compound 0.00316 µM
[19] = second compound 3.16 µM, first compound 0.01 µM
[20] = second compound 3.16 µM, first compound 0.0316 µM
[21] = second compound 10 µM, first compound 0.000316 µM
[22] = second compound 10 µM, first compound 0.001 µM
[23] = second compound 10 µM, first compound 0.00316 µM
[24] = second compound 10 µM, first compound 0.01 µM
[25] = second compound 10 µM, first compound 0.0316 µM
[26] = second compound 0.1 µM, first compound 0.1 µM
[27] = second compound 0.316 µM, first compound 0.1 µM
[28] = second compound 1 µM, first compound 0.1 µM
[29] = second compound 3.16 µM, first compound 0.1 µM
[30] = second compound 10 µM, first compound 0.1 µM
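Also: spheroids exposed to compounds for 7 days.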
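For viability, T/C in this document: 100% = DMSO vehicle control viability.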

SMILES: CC(=O)Nc1cccc(-n2c(=O)n(C3CC3)c(=O)c3c(Nc4ccc(I)cc4F)n(C)c(=O)c(C)c32)c1 + COc1cc2nc(C)nc(NC(C)c3cc(N)cc(C(F)(F)F)c3)c2cc1OC1CCOC1
- pIC50 (second compound 0.1 µM): < 7.50
- pIC50 (second compound 0.316 µM): 7.53
- pIC50 (second compound 1 µM): 7.73
- pIC50 (second compound 3.16 µM): 8.49
- pIC50 (second compound 10 µM): > 10.00
- viability, T/C (second compound 0.1 µM, first compound 0.0001 µM): 95.3%
- viability, T/C [1]: 114%
- viability, T/C [2]: 144%
- viability, T/C [3]: 128%
- viability, T/C [4]: 64%
- viability, T/C [5]: 84.8%
- viability, T/C (second compound 0.316 µM, first compound 0.0001 µM): 95%
- viability, T/C [6]: 126%
- viability, T/C [7]: 128%
- viability, T/C [8]: 110%
- viability, T/C [9]: 94.2%
- viability, T/C [10]: 47.3%
- viability, T/C (second compound 1 µM, first compound 0.0001 µM): 98.5%
- viability, T/C [11]: 103%
- viability, T/C [12]: 113%
- viability, T/C [13]: 114%
- viability, T/C [14]: 72.3%
- viability, T/C [15]: 30.6%
- viability, T/C (second compound 3.16 µM, first compound 0.0001 µM): 109%
- viability, T/C [16]: 109%
- viability, T/C [17]: 128%
- viability, T/C [18]: 50.9%
- viability, T/C [19]: 18.8%
- viability, T/C [20]: 5.41%
- viability, T/C (second compound 10 µM, first compound 0.0001 µM): 2.53%
- viability, T/C [21]: 2.62%
- viability, T/C [22]: 0.97%
- viability, T/C [23]: 0.39%
- viability, T/C [24]: 0.39%
- viability, T/C [25]: 0.27%

SMILES: CN(C)C/C=C/C(=O)Nc1cc2c(Nc3ccc(F)c(Cl)c3)ncnc2cc1O[C@H]1CCOC1 + COc1cc2nc(C)nc(NC(C)c3cc(N)cc(C(F)(F)F)c3)c2cc1OC1CCOC1
- pIC50 (second compound 0.1 µM): < 7.00
- pIC50 (second compound 0.316 µM): < 7.00
- pIC50 (second compound 1 µM): < 7.00
- pIC50 (second compound 3.16 µM): < 7.00
- pIC50 (second compound 10 µM): < 7.00
- viability, T/C [1]: 94%
- viability, T/C [2]: 96.7%
- viability, T/C [3]: 82.9%
- viability, T/C [4]: 101%
- viability, T/C [5]: 96.1%
- viability, T/C [26]: 91.8%
- viability, T/C [6]: 103%
- viability, T/C [7]: 107%
- viability, T/C [8]: 95.9%
- viability, T/C [9]: 98.9%
- viability, T/C [10]: 105%
- viability, T/C [27]: 103%
- viability, T/C [11]: 92.2%
- viability, T/C [12]: 96%
- viability, T/C [13]: 105%
- viability, T/C [14]: 97.2%
- viability, T/C [15]: 99.2%
- viability, T/C [28]: 83.5%
- viability, T/C [16]: 133%
- viability, T/C [17]: 119%
- viability, T/C [18]: 107%
- viability, T/C [19]: 115%
- viability, T/C [20]: 106%
- viability, T/C [29]: 105%
- viability, T/C [21]: 108%
- viability, T/C [22]: 103%
- viability, T/C [23]: 116%
- viability, T/C [24]: 106%
- viability, T/C [25]: 105%
- viability, T/C [30]: 95.2%

SMILES: COC(=O)c1ccc2c(C(=Nc3ccc(N(C)C(=O)CN4CCN(C)CC4)cc3)c3ccccc3)c(O)[nH]c2c1 + COc1cc2nc(C)nc(NC(C)c3cc(N)cc(C(F)(F)F)c3)c2cc1OC1CCOC1
- pIC50 (second compound 0.1 µM): 5.78
- pIC50 (second compound 0.316 µM): 5.80
- pIC50 (second compound 1 µM): 6.08
- pIC50 (second compound 3.16 µM): 6.23
- pIC50 (second compound 10 µM): > 7.50
- viability, T/C [5]: 89.6%
- viability, T/C [26]: 95.6%
- viability, T/C (second compound 0.1 µM, first compound 0.316 µM): 81.4%
- viability, T/C (second compound 0.1 µM, first compound 1 µM): 92.9%
- viability, T/C (second compound 0.1 µM, first compound 3.16 µM): 0.3%
- viability, T/C (second compound 0.1 µM, first compound 10 µM): 0.16%
- viability, T/C [10]: 94.4%
- viability, T/C [27]: 79.9%
- viability, T/C (second compound 0.316 µM, first compound 0.316 µM): 82.4%
- viability, T/C (second compound 0.316 µM, first compound 1 µM): 81.8%
- viability, T/C (second compound 0.316 µM, first compound 3.16 µM): 0.33%
- viability, T/C (second compound 0.316 µM, first compound 10 µM): 0.13%
- viability, T/C [15]: 88.1%
- viability, T/C [28]: 98.1%
- viability, T/C (second compound 1 µM, first compound 0.316 µM): 92.3%
- viability, T/C (second compound 1 µM, first compound 1 µM): 42.1%
- viability, T/C (second compound 1 µM, first compound 3.16 µM): 0.16%
- viability, T/C (second compound 1 µM, first compound 10 µM): 0.13%
- viability, T/C [20]: 95%
- viability, T/C [29]: 103%
- viability, T/C (second compound 3.16 µM, first compound 0.316 µM): 101%
- viability, T/C (second compound 3.16 µM, first compound 1 µM): 8.39%
- viability, T/C (second compound 3.16 µM, first compound 3.16 µM): 0.1%
- viability, T/C (second compound 3.16 µM, first compound 10 µM): 2%
- viability, T/C [25]: 9.43%
- viability, T/C [30]: 10.3%
- viability, T/C (second compound 10 µM, first compound 0.316 µM): 1.07%
- viability, T/C (second compound 10 µM, first compound 1 µM): 0.34%
- viability, T/C (second compound 10 µM, first compound 3.16 µM): 0.13%
- viability, T/C (second compound 10 µM, first compound 10 µM): 0.58%
